This experiment deals with Urease (Canavalia ensiformis, UniProt P07374). Nature of the experiment: Inhibition of jack bean urease assessed as reduction in ammonia production using urea as substrate after 15 mins by indophenol method.
Urease, sequence (P07374 whole entry): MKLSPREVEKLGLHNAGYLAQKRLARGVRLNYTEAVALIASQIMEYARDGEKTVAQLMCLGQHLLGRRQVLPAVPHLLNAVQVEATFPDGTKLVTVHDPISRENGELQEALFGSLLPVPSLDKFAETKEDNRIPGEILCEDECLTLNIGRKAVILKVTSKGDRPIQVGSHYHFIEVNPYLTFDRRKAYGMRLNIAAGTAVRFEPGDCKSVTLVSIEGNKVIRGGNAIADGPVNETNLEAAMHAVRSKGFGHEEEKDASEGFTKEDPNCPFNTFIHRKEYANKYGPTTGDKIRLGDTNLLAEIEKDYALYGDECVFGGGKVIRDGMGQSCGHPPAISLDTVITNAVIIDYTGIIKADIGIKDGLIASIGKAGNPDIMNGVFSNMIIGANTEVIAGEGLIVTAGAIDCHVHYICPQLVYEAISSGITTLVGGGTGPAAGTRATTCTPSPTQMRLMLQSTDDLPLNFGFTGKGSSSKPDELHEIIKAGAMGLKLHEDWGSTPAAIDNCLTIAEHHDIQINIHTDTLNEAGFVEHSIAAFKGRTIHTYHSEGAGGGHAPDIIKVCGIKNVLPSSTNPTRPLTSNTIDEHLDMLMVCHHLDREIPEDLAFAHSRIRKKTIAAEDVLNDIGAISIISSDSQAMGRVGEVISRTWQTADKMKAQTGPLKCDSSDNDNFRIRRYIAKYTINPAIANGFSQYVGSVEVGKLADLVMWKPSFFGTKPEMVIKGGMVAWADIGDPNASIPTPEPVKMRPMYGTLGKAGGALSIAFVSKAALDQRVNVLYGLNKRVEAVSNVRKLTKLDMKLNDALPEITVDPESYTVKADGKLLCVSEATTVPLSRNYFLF

For the molecule `Cc1ccc(C(c2c[nH]c3ccc(C(=O)NNC(=S)Nc4cccc(Br)c4)cc23)c2c[nH]c3ccc(C(=O)NNC(=S)Nc4cccc(Br)c4)cc23)cc1`, the concentration for half-maximal inhibition (IC50) was 1800 nM.
The figure for `Cc1ccc(C(c2c[nH]c3ccc(C(=O)NNC(=S)Nc4ccccc4F)cc23)c2c[nH]c3ccc(C(=O)NNC(=S)Nc4ccccc4F)cc23)cc1` is 800 nM; for `Cc1ccc(C(c2c[nH]c3ccc(C(=O)NNC(=S)Nc4ccc(Cl)cc4)cc23)c2c[nH]c3ccc(C(=O)NNC(=S)Nc4ccc(Cl)cc4)cc23)cc1` it is 2750 nM.
Next, `Cc1ccc(C(c2c[nH]c3ccc(C(=O)NNC(=S)Nc4ccc(F)cc4)cc23)c2c[nH]c3ccc(C(=O)NNC(=S)Nc4ccc(F)cc4)cc23)cc1`: 1100 nM; `Cc1ccc(C(c2c[nH]c3ccc(C(=O)NNC(=S)Nc4cccc([N+](=O)[O-])c4)cc23)c2c[nH]c3ccc(C(=O)NNC(=S)Nc4cccc([N+](=O)[O-])c4)cc23)cc1`: 7600 nM; `Cc1ccc(C(c2c[nH]c3ccc(C(=O)NNC(=S)Nc4cccc(C)c4)cc23)c2c[nH]c3ccc(C(=O)NNC(=S)Nc4cccc(C)c4)cc23)cc1`: 5100 nM.
On to `Cc1ccc(C(c2c[nH]c3ccc(C(=O)NNC(=S)Nc4ccccc4Br)cc23)c2c[nH]c3ccc(C(=O)NNC(=S)Nc4ccccc4Br)cc23)cc1`, for which the IC50 was 2500 nM.
The figure for `Cc1ccc(C(c2c[nH]c3ccc(C(=O)NNC(=S)Nc4ccc([N+](=O)[O-])cc4)cc23)c2c[nH]c3ccc(C(=O)NNC(=S)Nc4ccc([N+](=O)[O-])cc4)cc23)cc1` is 9500 nM; for `Cc1ccc(C(c2c[nH]c3ccc(C(=O)NNC(=S)Nc4ccccc4Cl)cc23)c2c[nH]c3ccc(C(=O)NNC(=S)Nc4ccccc4Cl)cc23)cc1` it is 1200 nM; for `Cc1ccc(C(c2c[nH]c3ccc(C(=O)NNC(=S)Nc4ccc(Cl)c(Cl)c4)cc23)c2c[nH]c3ccc(C(=O)NNC(=S)Nc4ccc(Cl)c(Cl)c4)cc23)cc1` it is 140 nM.
In the case of `COc1ccccc1NC(=S)NNC(=O)c1ccc2[nH]cc(C(c3ccc(C)cc3)c3c[nH]c4ccc(C(=O)NNC(=S)Nc5ccccc5OC)cc34)c2c1`, the IC50 stood at 8400 nM.
For `Cc1ccc(NC(=S)NNC(=O)c2ccc3[nH]cc(C(c4ccc(C)cc4)c4c[nH]c5ccc(C(=O)NNC(=S)Nc6ccc(C)cc6)cc45)c3c2)cc1`, the IC50 turned out to be 4200 nM.
Take `Cc1ccc(C(c2c[nH]c3ccc(C(=O)NNC(=S)Nc4ccccc4C)cc23)c2c[nH]c3ccc(C(=O)NNC(=S)Nc4ccccc4C)cc23)cc1`: the IC50 worked out at 3300 nM.
Take `COc1cccc(NC(=S)NNC(=O)c2ccc3[nH]cc(C(c4ccc(C)cc4)c4c[nH]c5ccc(C(=O)NNC(=S)Nc6cccc(OC)c6)cc45)c3c2)c1`: the IC50 is 12100 nM.
For `Cc1ccc(C(c2c[nH]c3ccc(C(=O)NNC(=S)NC45CC6CC(CC(C6)C4)C5)cc23)c2c[nH]c3ccc(C(=O)NNC(=S)NC45CC6CC(CC(C6)C4)C5)cc23)cc1` (stereo not drawn), the IC50 stood at 18500 nM.
Consider `Cc1ccc(C(c2c[nH]c3ccc(C(=O)NNC(=S)Nc4cccc(F)c4)cc23)c2c[nH]c3ccc(C(=O)NNC(=S)Nc4cccc(F)c4)cc23)cc1`, for which the IC50 turned out to be 980 nM.
Consider `Cc1ccc(C(c2c[nH]c3ccc(C(=O)NNC(=S)Nc4ccc(Br)cc4)cc23)c2c[nH]c3ccc(C(=O)NNC(=S)Nc4ccc(Br)cc4)cc23)cc1`, for which the IC50 came out at 1300 nM.
With `Cc1ccc(C(c2c[nH]c3ccc(C(=O)NNC(=S)Nc4ccc(C(F)(F)F)cc4)cc23)c2c[nH]c3ccc(C(=O)NNC(=S)Nc4ccc(C(F)(F)F)cc4)cc23)cc1`, the IC50 is 500 nM.

Source of the values: ChEMBL document CHEMBL4177710, “Bisindolylmethane thiosemicarbazides as potential inhibitors of urease: Synthesis and molecular modeling studies” (Bioorg Med Chem, 2018).
